# Earlier results as cited in patent publication US6447793B2, “Water soluble, broad spectrum preservative system” (The Collaborative Group, Ltd., priority 1998, dated 2002).
# Experiments:
# Conditions in all cases: pH of 4.5 or below
# [1] = tested on: yeast
# [2] = tested on: most bacterial
# [3] = tested on: mold
smiles,measurement,setting,value
"C/C=C/C=C/C(=O)O [sorbic acid, Sorbic acid]",activity against yeast,[1],fair
same,activity against most bacterial,[2],poor
same,activity against mold,[3],very active
